What was measured:
Eimeria tenella [1] = assay: Intracellular protozoan propagation inhibition in MDBK cells (ITS-1 PCR); format: cell-based; conditions: MDBK cells, treated after invasion, 24 hours, read-out: Intracellular protozoan propagation inhibitory effect (%)
Method: (§1) In the present example, using MDBK cell line which is a representative animal cell known to cause Eimeria infection and propagation, the inhibition ability of intracellular protozoan invasion and intracellular protozoal propagation of the violacein was investigated.
100,000 MDBK cells (purchased from ATCC) were aliquoted in a 24-well plate, and then incubated at a temperature of 37° C. for 12 hours. The protozoan of Eimeria tenella was obtained similar to the method of Example 3 above. 200,000 protozoa per one well were added to wells in which cells were aliquoted, and cultured at a temperature of 41° C. for 24 hours, and then the cells were washed using PBS solution twice to remove protozoa which were not attached to the cells. Each material (violacein and anticoccidial agents, salinomycin, diclazuril and gallic acid) was treated to the cells by concentration, and further cultured at a temperature of 41° C. for 24 hours. A negative control group is a MDBK cell infected by protozoa, and a positive control group means a group in which salinomycin and diclazuril solution was incubated with the Eimeria tenella protozoan. After removing the cells and protozoa inside the cells through pipetting, DNA was extracted from the cells, and PCR was performed using E. tenella ITS-1 (Internal transcribed spacer-1) gene-specific primers. The sequences of the used primers were described in Table 9 above.
The intracellular protozoan propagation inhibition rate (%) through treatment of the material was calculated by comparing Ct values in the material treatment groups compared to the negative control group, and the result was shown in FIG. 3 and Table 10.

Eimeria tenella [2] = assay: Cell invasion inhibition of protozoa in MDBK cells (ITS-1 PCR); format: cell-based; conditions: MDBK cells, 41° C. 24 hours, read-out: Cell invasion inhibitory effect of protozoa (%)
Method: as §1
100,000 MDBK cells (purchased from ATCC) were aliquoted in a 24-well plate, and then incubated at a temperature of 37° C. for 12 hours. The protozoan of Eimeria tenella was obtained similar to the method of Example 3 above. 200,000 protozoa per one well were added to wells in which cells were aliquoted, and each material (violacein and anticoccidial agents, salinomycin, diclazuril and gallic acid) was treated to the cells by concentration, and cultured at a temperature of 41° C. for 24 hours. A negative control group is a MDBK cell infected by protozoa of Eimeria tenella, and a positive control group means a group in which salinomycin, diclazuril or gallic acid solution was incubated with the Eimeria tenella protozoan. […] After removing the cells and protozoa inside the cells through pipetting, DNA was extracted from the cells, and PCR was performed using E. tenella ITS-1 (Internal transcribed spacer-1) gene-specific primers. The sequences of the used primers were described in Table 9 below.
Ct values before/after washing for each material were compared and corrected with the ΔCt value of the negative control group to calculate the cell invasion inhibition rate (%) of the protozoa through treatment of each material, and the result was shown in FIG. 3 and Table 10 below.

Eimeria maxima = assay: Protozoan (sporozoite) direct killing effect; format: cell-based; conditions: tested 1 to 500 ppm, vs PBS control
Method: (§2) In the present example, protozoan (sporozoite) direct killing ability evaluation was conducted against 3 representative Eimeria kinds known to be infected in most farms (E. tenella, E. acervulina, E. maxima).
(§3) A certain amount of oocysts of each coccidial protozoan was put in a tube containing glass beads and pulverized, and then to remove the crushed oocyst cell wall and other debris, internal sporocysts were purified using the percoll density gradient, and washed with PBS solution. A reagent comprising sodium taurocholic acid (Sigma aldrich, USA) and trypsin (Gibco, USA), respectively, was treated to sporocysts of Eimeria tenella, Eimeria acervulina and Eimeria maxima for excystation of the internal sporozoites, and they were incubated, and then they were washed with PBS solution once and the protozoa were obtained.
(§4) After reacting the violacein and anticoccidial agents, salinomycin, diclazuril and gallic acid (hereinafter, material) with 3 kinds of Eimeria protozoa at various concentrations of 1 to 500 ppm, respectively, only alive protozoa (sporozoites) were counted through microscopic observation. […]

Eimeria acervulina = assay: Protozoan (sporozoite) direct killing effect; format: cell-based; conditions: tested 1 to 500 ppm, vs PBS control
Method: as §2, §3, §4

Eimeria tenella [3] = assay: Protozoan (sporozoite) direct killing effect; format: cell-based; conditions: tested 1 to 500 ppm, vs PBS control
Method: as §2, §3, §4

Eimeria tenella [4] = assay: In vivo anticoccidial activity upon single inoculation (broilers, formulated feed); set-up: key to ACI: ACI out of 200 = survival% + RWG% − lesion×10 − oocyst index; conditions: Eimeria tenella infection, feed 1 ppm
Method: An in vivo anticoccidial efficacy evaluation test was performed in an animal experiment facility in Gyeongsangnam-do, South Korea. One-day-old female Ross broilers were individually weighed and randomly divided into groups to use in an experiment. Matters and conditions for experimental design were described in Table 2.
A breeding farm was managed according to the Korean poultry breeding management guidelines. Cages and the breeding farm were cleaned and disinfected before starting the test. The temperature of […] and the humidity of 40 to 50% of the breeding farm were maintained, and it was continuously monitored.
For the feed, Korea Feed Al-choi product was used, and each material (diclazuril (Yuhan Corporation YUHAN DICLA product), salinomycin (Cheil Bio Cheilsalino-60 product), violacein (CJ Cheiljedang)) was added to the feed, respectively, at a concentration described in Table 3 below to be self-mixed. Antibiotics and supplements were not used in general feed and mixed feed, and no anticoccidial agent other than each material was added. Broilers were fed ad libitum throughout the experiment period. After putting 15 1-day-age broilers in cages randomly placed for each of the control group or test group and breeding, general feed (Al-choi product) was fed for 7 days, and then the mixed feed prepared above was ingested by dividing by control group or test group. The non-infected negative control group used 1cage, and the infected negative control group and experimental group used 2cage to progress the experiment.
The feed formulation administered to the control group (negative control group or positive control group) and test group and whether coccidiosis was induced by Eimeria tenella were described in Table 3 below.
14-day-old broilers were orally inoculated with 10,000 oocysts (90% sporulated Eimeria tenella oocysts) per individual to induce coccidiosis.
The anticoccidial efficacy by test group designed in Example 1-2 above was shown as an anticoccidial index (ACI), and the anticoccidial index was calculated by Equation 2 below. The ACI score is out of 200 points, and the higher the ACI score, the more excellent the anticoccidial ability, and when it is 120 points or more to less than 140 points, it is determined that it is effective as an anticoccidial material, and when it is 140 points or more to less than 160 points, it is determined that it is excellent as an anticoccidial material, and when it is 160 points or more, it is determined that the anticoccidial effect is very excellent (Luis Miguel De Pablos et al., Anticoccidial activity of maslinic acid against infection with Eimeria tenella in chickens, Parasitol Res, 2010). Anticoccidial index (ACI)=(survival rate after challenge inoculation(%))+(daily weight gain compared to negative control group (RWG,%))−(lesion score×10)−(fecal oocyst excretion amount index) (Equation 2) • 1) Survival rate: the number of dead individuals was recorded daily, and post mortem autopsy was performed to determine a cause of mortality, and the number of individuals who died due to causes other than coccidiosis was excluded. The survival rate (%) up to the 8th day after challenge inoculation was used for anticoccidial index calculation. The measured survival rate was described in Table 4 below. • 2) Daily weight gain: body weight was measured for each cage before challenge inoculation with a protozoan into an individual and at the 7th day after challenge inoculation, and the difference was divided by the number of days to calculate the daily weight gain (ADG, g/d). ‘Daily weight gain compared to the negative control group (RWG, %)’ which was calculated by dividing the daily weight gain (ADG, average daily gain; g/d) of each experimental group by the weight gain (ADG, g/d) of the non-infected negative control group and multiplying by 100 was used for anticoccidial index calculation. […]

Which results are given for `N#CC(c1ccc(Cl)cc1)c1c(Cl)cc(-n2ncc(=O)[nH]c2=O)cc1Cl` (stereo not shown) [Diclazuril, diclazuril, reference compound]?
inhibition at 0.5 ppm (Eimeria tenella [1]; 0.5 ppm): 45.9%; inhibition at 1 ppm (Eimeria tenella [1]; 1 ppm): 52.9%; inhibition at 0.5 ppm (Eimeria tenella [2]; 0.5 ppm): 0%; inhibition at 1 ppm (Eimeria tenella [2]; 1 ppm): 6.3%; Minimum concentration for killing 50% protozoa (sporozoites) (ppm) (Eimeria maxima): >500 ppm; Minimum concentration for killing 50% protozoa (sporozoites) (ppm) (Eimeria acervulina): 500 ppm; Minimum concentration for killing 50% protozoa (sporozoites) (ppm) (Eimeria tenella [3]): >500 ppm; ADG(g/d) after challenge inoculation (Eimeria tenella [4]): 61 g/day; Oocyst index (Eimeria tenella [4]): 10; Lesion score (Eimeria tenella [4]; appendix, scale 0-4, 8th day): 1.7; Oocyst excretion amount/g (Eimeria tenella [4]; feces day 6-8): 1.3e+08 g⁻¹; Lesion index (Eimeria tenella [4]; lesion score x 10): 17; ACI (Eimeria tenella [4]; out of 200 points): 169; Survival rate after challenge inoculation (%) (Eimeria tenella [4]; up to 8th day): 100%; RWG(%) (Eimeria tenella [4]; vs non-infected negative control): 96%

With `O=C(O)c1cc(O)c(O)c(O)c1` [Gallic acid, gallic acid] as the compound, how does the inhibition at 5 ppm (Eimeria tenella [1]; 5 ppm) read?
Its inhibition at 5 ppm is 0%.

What about the inhibition at 10 ppm (Eimeria tenella [1]; 10 ppm) of the same compound?
Its inhibition at 10 ppm is 0%.

And the inhibition at 5 ppm (Eimeria tenella [2]; 5 ppm)?
The inhibition at 5 ppm was 76%.

What about the inhibition at 10 ppm (Eimeria tenella [2]; 10 ppm) of the same compound?
The inhibition at 10 ppm was 90.1%.

And the “Minimum concentration for killing 50% protozoa (sporozoites) (ppm)” value (Eimeria maxima)?
The value was over 500 ppm.

And the “Minimum concentration for killing 50% protozoa (sporozoites) (ppm)” value (Eimeria acervulina)?
The value was over 500 ppm.

What about the “Minimum concentration for killing 50% protozoa (sporozoites) (ppm)” value (Eimeria tenella [3]) of the same compound?
The value was over 500 ppm.

Source: patent US12721835B2, “Anticoccidial composition comprising violacein, and use thereof” (CJ CHEILJEDANG CORPORATION, priority 2020, dated 2026)
